For 34 compounds, IC50, EC50 and AC50 results are on record in ChEMBL document CHEMBL1201862, “PubChem BioAssay data set” (2004).

The term AC50 denotes the concentration at which the activity in the assay is half-maximal.

Activity calls are given as the source filed them.

Some targets named below: Cytochrome P450 2D6 (Homo sapiens, UniProt P10635); Cytochrome P450 3A4 (Homo sapiens, UniProt P08684); Cytochrome P450 2C9 (Homo sapiens, UniProt P11712).
Data set [1] addresses T1, Polyadenylate-binding protein 1 (Homo sapiens, UniProt P11940). Briefly: MLLE binding blockers, Cy5 peptide tracer – biochemical, fluorescence polarization, Cy5-PAM2 peptide, secondary, miRNA deadenylation inhibitor project, dose response (AID 602260). Type of data set: functional. The following applies: read-out: IC50_Mean. (In general: In fluorescence polarisation assays a small probe gives low polarisation when free and higher when bound to something large.)

Data set [2] has as its target T1, Polyadenylate-binding protein 1. Briefly: MLLE domain peptide-binding blockers, IC50 – biochemical, fluorescence polarization, FITC-PAM2 peptide, dose response (AID 602259). Type of data set: functional. The settings on record: read-out: IC50_Mean.
The target of data set [3] is T2, Corticotropin-releasing factor receptor 2/Corticotropin-releasing factor-binding protein (Homo sapiens, UniProt P24387+Q13324).
T2 sequence (Q13324 whole entry): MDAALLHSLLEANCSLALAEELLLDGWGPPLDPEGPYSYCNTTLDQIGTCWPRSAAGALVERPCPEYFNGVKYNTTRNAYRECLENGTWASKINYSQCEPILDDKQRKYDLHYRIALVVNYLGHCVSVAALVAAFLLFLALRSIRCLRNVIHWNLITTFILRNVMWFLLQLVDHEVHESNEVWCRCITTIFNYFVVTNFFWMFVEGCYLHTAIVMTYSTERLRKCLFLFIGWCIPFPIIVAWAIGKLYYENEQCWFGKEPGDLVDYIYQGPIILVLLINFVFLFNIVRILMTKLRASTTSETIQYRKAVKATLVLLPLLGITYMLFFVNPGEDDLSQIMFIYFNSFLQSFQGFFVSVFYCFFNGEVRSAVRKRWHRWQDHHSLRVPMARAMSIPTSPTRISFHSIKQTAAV
T2 sequence (P24387 whole entry): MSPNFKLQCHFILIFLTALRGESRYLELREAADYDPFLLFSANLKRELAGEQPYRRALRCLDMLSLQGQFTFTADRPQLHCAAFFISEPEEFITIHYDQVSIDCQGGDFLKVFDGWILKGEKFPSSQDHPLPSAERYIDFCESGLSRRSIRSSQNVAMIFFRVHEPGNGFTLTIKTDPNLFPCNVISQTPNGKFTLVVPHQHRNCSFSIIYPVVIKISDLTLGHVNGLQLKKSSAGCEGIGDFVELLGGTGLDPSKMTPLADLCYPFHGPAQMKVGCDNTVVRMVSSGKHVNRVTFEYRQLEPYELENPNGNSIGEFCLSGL
The data set is described as follows: Dose Response confirmation of uHTS hits for small molecule antagonists of the CRF-binding protein and CRF-R2 receptor complex. It counts as functional. The following applies: read-out: IC50_Mean.

Data set [4] has as its target T2, Corticotropin-releasing factor receptor 2/Corticotropin-releasing factor-binding protein. Briefly: activators of CRF receptor 2 with binding protein – uHTS hits, confirmation (AID 602473). Type of data set: functional. The following applies: read-out: EC50_Mean.
A further data set has as its target T3, Cytochrome P450 1A2 (Homo sapiens, UniProt P05177).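 Further: PubChem cytochrome P450 panel assay, CYP1A2 panel member.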
T3 sequence (P05177 whole entry): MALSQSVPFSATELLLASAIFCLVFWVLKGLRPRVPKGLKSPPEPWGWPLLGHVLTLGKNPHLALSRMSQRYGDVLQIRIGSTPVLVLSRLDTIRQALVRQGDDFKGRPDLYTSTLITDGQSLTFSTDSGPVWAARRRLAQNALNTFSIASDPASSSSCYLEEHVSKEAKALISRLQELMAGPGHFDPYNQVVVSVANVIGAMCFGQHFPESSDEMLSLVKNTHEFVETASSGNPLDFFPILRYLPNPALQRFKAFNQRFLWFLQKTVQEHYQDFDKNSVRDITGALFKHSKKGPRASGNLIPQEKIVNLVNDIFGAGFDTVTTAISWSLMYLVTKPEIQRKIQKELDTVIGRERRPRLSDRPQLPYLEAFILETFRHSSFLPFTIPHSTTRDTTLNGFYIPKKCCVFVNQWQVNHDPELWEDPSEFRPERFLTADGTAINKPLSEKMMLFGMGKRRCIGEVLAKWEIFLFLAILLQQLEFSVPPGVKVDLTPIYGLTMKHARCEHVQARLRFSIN

A further data set addresses Cytochrome P450 2C19 (Homo sapiens, UniProt P33261). The data set is described as follows: Cytochrome panel assay with activity outcomes. Panel member name: p450-cyp2c19 Compounds with AC50 equal or less than 10 uM are considered active. It counts as functional.
Data set [5] can be described thus: fluconazole-exposed Candida albicans growth modulators – fluorescence, retest, confirmation (AID 2467). It counts as functional, cell-based.
Data set [6] can be described thus: NIH-3T3 fibroblast cytotoxicity, dose response, cytotoxicity control, cell-based, fluorescence, Alamar Blue, secondary assay (AID 2327).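 Further: NIH-3T3 mouse fibroblasts cultured with fluconazole at 8 µg/mL.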 Type of data set: functional.

Sequence of Cytochrome P450 2C9 (P11712 whole entry): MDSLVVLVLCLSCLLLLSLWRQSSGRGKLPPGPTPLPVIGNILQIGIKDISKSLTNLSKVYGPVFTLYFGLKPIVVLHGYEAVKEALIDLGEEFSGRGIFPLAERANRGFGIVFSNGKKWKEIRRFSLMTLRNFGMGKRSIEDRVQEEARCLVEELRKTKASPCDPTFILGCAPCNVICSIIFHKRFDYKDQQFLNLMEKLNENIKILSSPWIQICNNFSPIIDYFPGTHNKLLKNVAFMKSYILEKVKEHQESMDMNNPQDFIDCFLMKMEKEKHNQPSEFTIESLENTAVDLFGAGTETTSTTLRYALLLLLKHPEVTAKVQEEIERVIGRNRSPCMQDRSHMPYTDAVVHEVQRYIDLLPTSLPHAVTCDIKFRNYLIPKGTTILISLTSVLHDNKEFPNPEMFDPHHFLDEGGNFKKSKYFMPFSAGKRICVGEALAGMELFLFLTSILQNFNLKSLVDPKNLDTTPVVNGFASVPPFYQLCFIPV
T1 sequence (P11940 whole entry): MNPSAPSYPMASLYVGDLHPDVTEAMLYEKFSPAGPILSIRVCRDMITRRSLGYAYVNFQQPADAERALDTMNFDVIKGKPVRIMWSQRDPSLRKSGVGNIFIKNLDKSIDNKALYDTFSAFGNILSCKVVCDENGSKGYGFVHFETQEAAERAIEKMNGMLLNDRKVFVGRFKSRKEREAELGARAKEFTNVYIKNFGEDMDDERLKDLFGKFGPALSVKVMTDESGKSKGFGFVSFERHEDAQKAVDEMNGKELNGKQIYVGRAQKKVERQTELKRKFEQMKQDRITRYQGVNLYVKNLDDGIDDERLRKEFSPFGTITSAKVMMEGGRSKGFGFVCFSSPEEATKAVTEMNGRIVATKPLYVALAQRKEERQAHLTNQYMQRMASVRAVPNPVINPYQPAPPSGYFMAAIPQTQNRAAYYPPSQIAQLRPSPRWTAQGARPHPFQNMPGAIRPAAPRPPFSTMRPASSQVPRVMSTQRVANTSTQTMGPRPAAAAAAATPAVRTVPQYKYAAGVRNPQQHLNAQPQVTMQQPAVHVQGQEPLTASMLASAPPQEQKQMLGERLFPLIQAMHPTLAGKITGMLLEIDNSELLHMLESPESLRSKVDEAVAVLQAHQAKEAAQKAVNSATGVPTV
Sequence of Cytochrome P450 2C19 (P33261 whole entry): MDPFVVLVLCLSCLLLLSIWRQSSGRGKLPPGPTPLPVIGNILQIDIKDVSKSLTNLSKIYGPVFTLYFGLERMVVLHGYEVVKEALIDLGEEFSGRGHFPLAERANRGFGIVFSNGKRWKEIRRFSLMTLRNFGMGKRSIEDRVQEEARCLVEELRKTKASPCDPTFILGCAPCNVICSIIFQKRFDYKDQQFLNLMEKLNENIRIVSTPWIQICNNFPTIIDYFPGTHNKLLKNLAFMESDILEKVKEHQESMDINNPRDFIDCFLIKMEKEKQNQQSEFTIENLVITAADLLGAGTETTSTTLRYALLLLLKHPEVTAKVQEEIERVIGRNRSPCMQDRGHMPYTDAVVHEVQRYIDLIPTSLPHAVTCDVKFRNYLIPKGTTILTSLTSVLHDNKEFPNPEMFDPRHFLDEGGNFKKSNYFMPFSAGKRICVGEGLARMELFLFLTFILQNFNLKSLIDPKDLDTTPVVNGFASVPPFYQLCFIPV
Sequence of Cytochrome P450 2D6 (P10635 whole entry): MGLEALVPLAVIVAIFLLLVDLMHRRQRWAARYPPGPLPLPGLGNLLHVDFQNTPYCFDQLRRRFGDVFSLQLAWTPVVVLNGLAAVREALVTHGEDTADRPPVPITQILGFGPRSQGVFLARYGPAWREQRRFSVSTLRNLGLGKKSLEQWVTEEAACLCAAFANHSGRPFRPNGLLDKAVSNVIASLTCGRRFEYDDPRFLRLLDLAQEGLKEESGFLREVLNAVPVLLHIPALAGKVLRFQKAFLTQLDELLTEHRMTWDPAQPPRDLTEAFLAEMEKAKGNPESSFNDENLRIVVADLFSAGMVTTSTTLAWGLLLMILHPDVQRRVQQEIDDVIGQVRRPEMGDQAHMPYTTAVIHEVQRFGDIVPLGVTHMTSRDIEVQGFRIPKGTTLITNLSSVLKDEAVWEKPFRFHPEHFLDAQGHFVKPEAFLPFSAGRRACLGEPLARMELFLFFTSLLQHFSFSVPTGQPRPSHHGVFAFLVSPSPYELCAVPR
Sequence of Cytochrome P450 3A4 (P08684 whole entry): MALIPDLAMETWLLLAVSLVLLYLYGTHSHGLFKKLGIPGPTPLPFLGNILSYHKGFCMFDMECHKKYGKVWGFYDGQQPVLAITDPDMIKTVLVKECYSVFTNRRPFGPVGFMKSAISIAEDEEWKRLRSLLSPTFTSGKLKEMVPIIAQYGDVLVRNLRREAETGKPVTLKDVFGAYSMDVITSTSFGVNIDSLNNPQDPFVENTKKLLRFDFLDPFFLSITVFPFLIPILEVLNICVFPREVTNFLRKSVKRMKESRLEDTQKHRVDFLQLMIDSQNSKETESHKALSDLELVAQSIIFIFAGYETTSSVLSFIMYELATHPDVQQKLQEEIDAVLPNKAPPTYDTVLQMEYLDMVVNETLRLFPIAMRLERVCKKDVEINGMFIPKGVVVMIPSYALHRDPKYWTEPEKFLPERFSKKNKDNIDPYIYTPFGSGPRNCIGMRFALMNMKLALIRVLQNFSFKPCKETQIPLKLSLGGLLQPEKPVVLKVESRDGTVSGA

Consider `Cc1ccc(C(=O)NC(=S)Nc2cccc(-c3nc4ccccc4s3)c2)cc1`, for which the IC50 in [1] and in data set [2] was > 66 µM (inactive) in each case.
In the case of `CCN1CCc2c(C#N)c(N3CCOCC3)nc(NCCO)c2C1`, the IC50 in data set [1] and in data set [2] was > 66 µM (inactive) each time.
On to `Cc1cccc(N2CCN(S(=O)(=O)c3ccc(Cl)nc3)CC2C)c1` (stereo not given), for which the IC50 in data set [3] is > 47.1 µM (inactive). Also, the EC50 in [4] is > 53 µM (inactive).
With `O=Cc1c(N2CCN(CCO)CC2)nc2ccccn2c1=O`, the IC50 in data set [1] and in data set [2] was > 66 µM (inactive) throughout. In addition, in data set [4], the EC50 is > 53 µM (inactive).
With `COc1ccc(CCC(C)Nc2cccc(F)c2)cc1` (stereo not given), the AC50 at Cytochrome P450 2D6 was 10 µM (inconclusive).
As to `Oc1ccnc2c(Cl)cccc12`, the IC50 in [3] was > 47.1 µM (inactive). For the same compound, the EC50 in data set [4] was > 53 µM (inactive).
With `Cc1ccccc1-c1nc(C[S+]([O-])CC(=O)N2CCC3(CC2)OCCO3)c(C)o1` (stereo not given), the AC50 at Cytochrome P450 1A2 and at Cytochrome P450 2D6 was 25.1 µM (inconclusive) throughout.
`CN(C)c1ncc2nc(CCc3ccccc3)c(=O)n(Cc3ccc(F)cc3)c2n1`: the results for the AC50 at Cytochrome P450 2D6 and on Cytochrome P450 3A4 were 25.1 µM (inconclusive) and 3.98 µM (inconclusive), respectively.
Consider `COc1ccc2sc(-c3ccc(S(C)(=O)=O)cc3)c(C(=O)NCCc3c[nH]c4ccccc34)c2c1`, for which the IC50 in data set [3] was > 47.1 µM (inactive). For the same compound, the EC50 in [4] was > 53 µM (inactive).
On to `Cc1cc(C)n(N=C(S)NC2CCCCC2)c(=O)c1C#N`, for which the IC50 in data set [1] and in data set [2] was > 66 µM (inactive) each time.
In the case of `COC(=O)c1ccc(CSc2nc3ccccc3c(=O)n2-c2cccc(OC)c2)o1`, in data set [3], the IC50 is 4.06 µM (active). The EC50 in [4] is > 53 µM (inactive).
Take `CC12CCC(C(=O)Nc3ncc([N+](=O)[O-])s3)(OC1=O)C2(C)C` (stereo not given): the AC50 result at Cytochrome P450 2C19 is “inconclusive”; on Cytochrome P450 2C9, 11.2 µM (inconclusive). The IC50 in data set [3] is > 47.1 µM (inactive). Besides, the EC50 is 0.629 µM (active) in [5], > 160 µM (inactive) in [6] and > 53 µM (inactive) in [4].
As to `O=C(NC(=S)Nc1cccc(O)c1)c1cncc(Br)c1`, the IC50 in data set [1] and in data set [2] was > 66 µM (inactive) each time.
`O=C(NC(=S)Nc1cccnc1)c1cccs1`: the IC50 in [1] and in data set [2] was > 66 µM (inactive) in each case.
Turning to `COc1ccc(CCNC(=O)COc2ccc(N(C)S(=O)(=O)c3ccc(C)cc3)cc2)cc1OC`, the IC50 in data set [3] was > 47.1 µM (inactive). In addition, the EC50 in data set [4] is > 53 µM (inactive).
With `Cc1ccc(C(=O)NC(=S)NNS(=O)(=O)c2ccccc2)cc1`, the IC50 in data set [1] and in data set [2] was > 66 µM (inactive) in each case.
For the compound `CN(C1CCCCC1)S(=O)(=O)c1ccc(S)nc1`, the IC50 in data set [1] and in [2] was > 66 µM (inactive) in each case.
As for `O=C(c1cc(C(F)(F)F)cc(C(F)(F)F)c1)N1CCC2(CC1)CN(c1ccccn1)C2`, on Cytochrome P450 2D6, the AC50 was 12.6 µM (inconclusive).
`Nc1nc(NCCc2ccc(O)cc2)nc2nc(-c3ccco3)nn12` [ZM-241385]: the AC50 on Cytochrome P450 1A2 was 31.6 µM (inconclusive); on Cytochrome P450 2D6, 10 µM (inconclusive); at Cytochrome P450 2C9 it was 39.8 µM (inconclusive).
With `CN(C)/C=N/c1ccc2nn(-c3ccccc3)nc2c1`, the AC50 on Cytochrome P450 2D6 was 25.1 µM (inconclusive); on Cytochrome P450 2C9 it was 15.8 µM (inconclusive).
As to `Cc1cc(O)nc(SCn2nnc3ccccc3c2=O)n1`, the IC50 in data set [1] and in data set [2] was > 66 µM (inactive) throughout.
Regarding `COC(=O)c1c(C)oc2ccc(N(C(=O)c3ccncc3)S(=O)(=O)c3ccccc3)cc12`, the AC50 at Cytochrome P450 2D6 is 0.0355 µM (inconclusive).
`CCOc1ccc(-n2c(C)nc3cc(C(=O)NCc4ccco4)ccc32)cc1`: the AC50 is 25.1 µM (inconclusive) at Cytochrome P450 1A2 and 11.2 µM (inconclusive) on Cytochrome P450 2D6.
For `CCN(CC(=O)NCc1ccc(Cl)cc1)C(=O)CNS(=O)(=O)c1ccc(NC(C)=O)cc1`, the IC50 in data set [1] and in data set [2] was > 66 µM (inactive) throughout.
Consider `Cn1cccc1C(=O)N1CCC2(CCCN(c3ccccn3)C2)CC1`, for which the AC50 was 20 µM (inconclusive) on Cytochrome P450 1A2, 25.1 µM (inconclusive) on Cytochrome P450 2D6, 25.1 µM (inconclusive) on Cytochrome P450 2C9 and 20 µM (inconclusive) on Cytochrome P450 3A4.
On to `O=C(NNC(=O)c1cccc(S(=O)(=O)N2CCCCC2)c1)c1ccccc1`, for which, in data set [3], the IC50 is > 47.1 µM (inactive). Besides, the EC50 in data set [4] was > 53 µM (inactive).
Consider `COc1ccc(CCN(C)Cc2ccc(OCc3ccccc3)c(OC)c2)cc1OC`, for which the AC50 was 39.8 µM (inconclusive) on Cytochrome P450 1A2, 14.1 µM (inconclusive) on Cytochrome P450 2D6 and 15.8 µM (inconclusive) at Cytochrome P450 2C9.
With `COc1ccccc1CNc1cc(-c2ccccc2C)ncn1`, the values for the AC50 on Cytochrome P450 2D6 and on Cytochrome P450 3A4 were 15.8 µM (inconclusive) and 31.6 µM (inconclusive), respectively.
Consider `CC(=O)C1(O)CCC2C3CC(C)C4=CC(=O)C=CC4(C)C3(F)C(O)CC21C` (stereo not given), for which the IC50 in data set [3] was > 47.1 µM (inactive). In addition, in [4], the EC50 was > 53 µM (inactive).
Take `O=[N+]([O-])/C=C\c1cc2ccccc2[nH]1`: the concentration at half-maximal activity (AC50) on Cytochrome P450 2D6 and on Cytochrome P450 2C19 (read-out: AC50) was 5.01 µM (inconclusive) each time.
Regarding `Cc1ccc2nc(N3C(=O)C(O)=C(C(=O)c4ccco4)C3c3cccc(O)c3)sc2c1` (stereo not given), in data set [3], the IC50 was < 0.368 µM (active). Moreover, the EC50 in [4] was > 53 µM (inactive).
Take `CCN(CC)S(=O)(=O)c1cccc(C(=O)Nc2ccc3c(c2)OCO3)c1`: the IC50 in [3] is > 47.1 µM (inactive). For the same compound, the EC50 in data set [4] was > 53 µM (inactive).
Turning to `CN(Cc1ccco1)c1ncncc1-c1ccoc1`, the half-maximal activity concentration (AC50) at Cytochrome P450 2D6 was 39.8 µM (inconclusive); at Cytochrome P450 2C19 (read-out: AC50), 39.8 µM (inconclusive); at Cytochrome P450 3A4, 3.16 µM (inconclusive).
As to `CC(N=C(S)Nc1ccccc1C(F)(F)F)C1CC2CCC1C2` (stereo not given), the IC50 in data set [1] and in [2] was > 66 µM (inactive) each time.
